{"source": "patent US10947210B2", "about": "(priority 2015, dated 2021)", "data": [{"molecular_target": "HCV RNA-dependent RNA polymerase (NS5B) (Hepatitis C virus genotype 1b (isolate BK) (HCV), UniProt P26663)", "sequence (P26663 2420-3010)": "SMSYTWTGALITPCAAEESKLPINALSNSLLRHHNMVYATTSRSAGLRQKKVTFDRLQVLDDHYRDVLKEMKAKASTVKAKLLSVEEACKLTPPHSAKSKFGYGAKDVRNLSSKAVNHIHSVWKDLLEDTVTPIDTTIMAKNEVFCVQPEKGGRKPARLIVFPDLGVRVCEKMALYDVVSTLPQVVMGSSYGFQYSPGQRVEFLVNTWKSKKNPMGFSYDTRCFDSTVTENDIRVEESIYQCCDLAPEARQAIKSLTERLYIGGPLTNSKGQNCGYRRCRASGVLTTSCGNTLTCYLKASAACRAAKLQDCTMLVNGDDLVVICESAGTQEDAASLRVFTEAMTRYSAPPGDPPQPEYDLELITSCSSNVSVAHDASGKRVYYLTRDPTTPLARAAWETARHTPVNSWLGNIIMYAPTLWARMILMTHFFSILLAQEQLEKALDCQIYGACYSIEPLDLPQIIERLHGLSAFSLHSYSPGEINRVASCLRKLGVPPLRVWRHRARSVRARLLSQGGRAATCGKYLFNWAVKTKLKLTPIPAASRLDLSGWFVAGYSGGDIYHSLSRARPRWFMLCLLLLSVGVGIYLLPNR", "test": "RNA-Dependent RNA HCV NS5B (polymerase) Assay and IC50 Determination", "format": "biochemical", "conditions": "purified HCV NS5B polymerase, polyA:U16 substrate, 32P-UTP incorporation; read-out: IC50", "method": "RNA-Dependent RNA HCV NS5B (polymerase) Assay and IC50 Determination.\nThe reaction mixtures consisted of 50 mM Hepes-KOH, pH 7.5, 5 mM MgCl2, 5 mM DTT, 2% glycerol, 0.01% Triton® X-100, 0.5 uM polyA:U16 substrate, purified HCV RNA-dependent RNA polymerase, 10 μM UTP, and ^32P-UTP (Perkin Elmer). The reaction mixtures incubated at 30° C. for 60 minutes, and then filtered through Zeta probe membrane (BioRad). The filter was washed with 5×SSC (75 mM sodium citrate, pH 7 and 750 mM NaCl), and the radiolabeled RNA products were quantitated by microbeta (Perkin Elmer). For IC50 determination, different concentrations of inhibitors were added to the polymerase reaction mixtures, and incubated at 37° C. for 60 minutes. IC50 values were determined using GraFit (Erithaus software).\nTable 1 presents IC50 data obtained using the biochemical assay to test representative compounds. Data are presented as follows: “+++” means <0.1 μM; “++” means ≥0.1 μM but <1.0 μM; “+” means ≥1.0 μM.", "units": {"IC50": "nM"}, "values": [{"smiles": "CNC(=O)c1c(-c2ccc(F)cc2)oc2cc(N(CCOCCOCCc3ccccc3C(=O)OC)S(C)(=O)=O)c(C3CC3)cc12", "note": "[Compound 11-5A, 2-{2-[2-(2-{[5-Cyclopropyl-2-(4-fluoro-phenyl)-3-methylcarbamoyl-benzofuran-6-yl]-methanesulfonyl-amino}-ethoxy)-ethoxy]-ethyl}-benzoic Acid Methyl Ester]", "IC50": "100 to 1000"}, {"smiles": "CCOC(=O)c1cccc(CCOCCOCCN(c2cc3oc(-c4ccc(F)cc4)c(C(=O)NC)c3cc2C2CC2)S(C)(=O)=O)c1", "note": "[Compound 11-5B, 3-{2-[2-(2-{[5-Cyclopropyl-2-(4-fluoro-phenyl)-3-methylcarbamoyl-benzofuran-6-yl]-methanesulfonyl-amino}-ethoxy)-ethoxy]-ethyl}-benzoic Acid Ethyl Ester]", "IC50": "> 1000"}, {"smiles": "CNC(=O)c1c(-c2ccc(F)cc2)oc2cc(N(CCOCCOCCc3ccc(C(=O)OC)cc3)S(C)(=O)=O)c(C3CC3)cc12", "note": "[Compound 11-5C, 4-{2-[2-(2-{[5-Cyclopropyl-2-(4-fluoro-phenyl)-3-methylcarbamoyl-benzofuran-6-yl]-methanesulfonyl-amino}-ethoxy)-ethoxy]-ethyl}-benzoic Acid Methyl Ester]", "IC50": "> 1000"}, {"smiles": "CNC(=O)c1c(-c2ccc(F)cc2)oc2cc(N(CCOCCOCCc3ccccc3C(=O)O)S(C)(=O)=O)c(C3CC3)cc12", "note": "[Compound 11-6A, 2-{2-[2-(2-{[5-Cyclopropyl-2-(4-fluoro-phenyl)-3-methylcarbamoyl-benzofuran-6-yl]-methanesulfonyl-amino}-ethoxy)-ethoxy]-ethyl}-benzoic Acid]", "IC50": "< 100"}, {"smiles": "CNC(=O)c1c(-c2ccc(F)cc2)oc2cc(N(CCOCCOCCc3cccc(C(=O)O)c3)S(C)(=O)=O)c(C3CC3)cc12", "note": "[Compound 11-6B, 3-{2-[2-(2-{[5-Cyclopropyl-2-(4-fluoro-phenyl)-3-methylcarbamoyl-benzofuran-6-yl]-methanesulfonyl-amino}-ethoxy)-ethoxy]-ethyl}-benzoic Acid]", "IC50": "< 100"}, {"smiles": "CNC(=O)c1c(-c2ccc(F)cc2)oc2cc(N(CCOCCOCCc3ccc(C(=O)O)cc3)S(C)(=O)=O)c(C3CC3)cc12", "note": "[Compound 11-6C, 4-{2-[2-(2-{[5-Cyclopropyl-2-(4-fluoro-phenyl)-3-methylcarbamoyl-benzofuran-6-yl]-methanesulfonyl-amino}-ethoxy)-ethoxy]-ethyl}-benzoic Acid]", "IC50": "100 to 1000"}, {"smiles": "CNC(=O)c1c(-c2ccc(F)cc2)oc2cc(N(CCOCCOCCCc3ccccc3C(=O)OC)S(C)(=O)=O)c(C3CC3)cc12", "note": "[Compound 12-6A, 2-{3-[2-(2-{[5-Cyclopropyl-2-(4-fluoro-phenyl)-3-methylcarbamoyl-benzofuran-6-yl]-methanesulfonyl-amino}-ethoxy)-ethoxy]-propyl}-benzoic Acid Methyl Ester]", "IC50": "100 to 1000"}, {"smiles": "CNC(=O)c1c(-c2ccc(F)cc2)oc2cc(N(CCOCCOCCCc3ccccc3C(=O)O)S(C)(=O)=O)c(C3CC3)cc12", "note": "[Compound 12-7A, 2-{3-[2-(2-{[5-Cyclopropyl-2-(4-fluoro-phenyl)-3-methylcarbamoyl-benzofuran-6-yl]-methanesulfonyl-amino}-ethoxy)-ethoxy]-propyl}-benzoic Acid]", "IC50": "< 100"}, {"smiles": "CNC(=O)c1c(-c2ccc(F)cc2)oc2cc(N(CCOCCOCCCc3cccc(C(=O)O)c3)S(C)(=O)=O)c(C3CC3)cc12", "note": "[Compound 12-7B, 3-{3-[2-(2-{[5-Cyclopropyl-2-(4-fluoro-phenyl)-3-methylcarbamoyl-benzofuran-6-yl]-methanesulfonyl-amino}-ethoxy)-ethoxy]-propyl}-benzoic Acid]", "IC50": "< 100"}, {"smiles": "CNC(=O)c1c(-c2ccc(F)cc2)oc2cc(N(CCOCCOCCCc3ccc(C(=O)O)cc3)S(C)(=O)=O)c(C3CC3)cc12", "note": "[Compound 12-7C, 4-{3-[2-(2-{[5-Cyclopropyl-2-(4-fluoro-phenyl)-3-methylcarbamoyl-benzofuran-6-yl]-methanesulfonyl-amino}-ethoxy)-ethoxy]-propyl}-benzoic Acid]", "IC50": "100 to 1000"}, {"smiles": "CNC(=O)c1c(-c2ccc(F)cc2)oc2cc(N(CCOCCCCc3ccc(C(=O)OC)cc3)S(C)(=O)=O)c(C3CC3)cc12", "note": "[Compound 13-7A, 4-[4-(2-{[5-Cyclopropyl-2-(4-fluoro-phenyl)-3-methylcarbamoyl-benzofuran-6-yl]-methanesulfonyl-amino}-ethoxy)-butyl]-benzoic Acid Methyl Ester]", "IC50": "100 to 1000"}, {"smiles": "CNC(=O)c1c(-c2ccc(F)cc2)oc2cc(N(CCCOCCCc3ccc(C(=O)OC)cc3)S(C)(=O)=O)c(C3CC3)cc12", "note": "[Compound 13-7B, 4-[3-(3-{[5-Cyclopropyl-2-(4-fluoro-phenyl)-3-methylcarbamoyl-benzofuran-6-yl]-methanesulfonyl-amino}-propoxy)-propyl]-benzoic Acid Methyl Ester]", "IC50": "100 to 1000"}, {"smiles": "CNC(=O)c1c(-c2ccc(F)cc2)oc2cc(N(CCCCOCCc3ccc(C(=O)OC)cc3)S(C)(=O)=O)c(C3CC3)cc12", "note": "[Compound 13-7C, 4-[2-(4-{[5-Cyclopropyl-2-(4-fluoro-phenyl)-3-methylcarbamoyl-benzofuran-6-yl]-methanesulfonyl-amino}-butoxy)-ethyl]-benzoic Acid Methyl Ester]", "IC50": "100 to 1000"}, {"smiles": "CNC(=O)c1c(-c2ccc(F)cc2)oc2cc(N(CCCCCCCc3ccc(C(=O)OC)cc3)S(C)(=O)=O)c(C3CC3)cc12", "note": "[Compound 13-7D, 4-(7-{[5-Cyclopropyl-2-(4-fluoro-phenyl)-3-methylcarbamoyl-benzofuran-6-yl]-methanesulfonyl-amino}-heptyl)-benzoic Acid Methyl Ester]", "IC50": "100 to 1000"}, {"smiles": "CNC(=O)c1c(-c2ccc(F)cc2)oc2cc(N(CCOCCCCc3ccc(C(=O)O)cc3)S(C)(=O)=O)c(C3CC3)cc12", "note": "[Compound 13-8A, 4-[4-(2-{[5-Cyclopropyl-2-(4-fluoro-phenyl)-3-methylcarbamoyl-benzofuran-6-yl]-methanesulfonyl-amino}-ethoxy)-butyl]-benzoic Acid]", "IC50": "100 to 1000"}, {"smiles": "CNC(=O)c1c(-c2ccc(F)cc2)oc2cc(N(CCCOCCCc3ccc(C(=O)O)cc3)S(C)(=O)=O)c(C3CC3)cc12", "note": "[Compound 13-8B, 4-[3-(3-{[5-Cyclopropyl-2-(4-fluoro-phenyl)-3-methylcarbamoyl-benzofuran-6-yl]-methanesulfonyl-amino}-propoxy)-propyl]-benzoic Acid]", "IC50": "100 to 1000"}, {"smiles": "CCOC(=O)c1ccccc1OCCOCCOCCN(c1cc2oc(-c3ccc(F)cc3)c(C(=O)NC)c2cc1C1CC1)S(C)(=O)=O", "note": "[Compound 14-6A, 2-{2-[2-(2-{[5-Cyclopropyl-2-(4-fluoro-phenyl)-3-methylcarbamoyl-benzofuran-6-yl]-methanesulfonyl-amino}-ethoxy)-ethoxy]-ethoxy}-benzoic Acid Ethyl Ester]", "IC50": "100 to 1000"}, {"smiles": "CCOC(=O)c1cccc(OCCOCCOCCN(c2cc3oc(-c4ccc(F)cc4)c(C(=O)NC)c3cc2C2CC2)S(C)(=O)=O)c1", "note": "[Compound 14-6B, 3-{2-[2-(2-{[5-Cyclopropyl-2-(4-fluoro-phenyl)-3-methylcarbamoyl-benzofuran-6-yl]-methanesulfonyl-amino}-ethoxy)-ethoxy]-ethoxy}-benzoic Acid Ethyl Ester]", "IC50": "> 1000"}, {"smiles": "CCOC(=O)c1ccc(OCCOCCOCCN(c2cc3oc(-c4ccc(F)cc4)c(C(=O)NC)c3cc2C2CC2)S(C)(=O)=O)cc1", "note": "[Compound 14-6C, 4-{2-[2-(2-{[5-Cyclopropyl-2-(4-fluoro-phenyl)-3-methylcarbamoyl-benzofuran-6-yl]-methanesulfonyl-amino}-ethoxy)-ethoxy]-ethoxy}-benzoic Acid Ethyl Ester]", "IC50": "> 1000"}, {"smiles": "CNC(=O)c1c(-c2ccc(F)cc2)oc2cc(N(CCOCCOCCOc3ccccc3C(=O)O)S(C)(=O)=O)c(C3CC3)cc12", "note": "[Compound 14-7A, 2-{2-[2-(2-{[5-Cyclopropyl-2-(4-fluoro-phenyl)-3-methylcarbamoyl-benzofuran-6-yl]-methanesulfonyl-amino}-ethoxy)-ethoxy]-ethoxy}-benzoic Acid]", "IC50": "< 100"}, {"smiles": "CNC(=O)c1c(-c2ccc(F)cc2)oc2cc(N(CCOCCOCCOc3cccc(C(=O)O)c3)S(C)(=O)=O)c(C3CC3)cc12", "note": "[Compound 14-7B, 3-{2-[2-(2-{[5-Cyclopropyl-2-(4-fluoro-phenyl)-3-methylcarbamoyl-benzofuran-6-yl]-methanesulfonyl-amino}-ethoxy)-ethoxy]-ethoxy}-benzoic Acid]", "IC50": "100 to 1000"}, {"smiles": "CNC(=O)c1c(-c2ccc(F)cc2)oc2cc(N(CCOCCOCCOc3ccc(C(=O)O)cc3)S(C)(=O)=O)c(C3CC3)cc12", "note": "[Compound 14-7C, 4-{2-[2-(2-{[5-Cyclopropyl-2-(4-fluoro-phenyl)-3-methylcarbamoyl-benzofuran-6-yl]-methanesulfonyl-amino}-ethoxy)-ethoxy]-ethoxy}-benzoic Acid]", "IC50": "100 to 1000"}, {"smiles": "CCOC(=O)c1ccc(OCCCCCCN(c2cc3oc(-c4ccc(F)cc4)c(C(=O)NC)c3cc2C2CC2)S(C)(=O)=O)cc1", "note": "[Compound 15-7, 4-(6-{[5-Cyclopropyl-2-(4-fluoro-phenyl)-3-methylcarbamoyl-benzofuran-6-yl]-methanesulfonyl-amino}-hexyloxy)-benzoic Acid Ethyl Ester]", "IC50": "100 to 1000"}, {"smiles": "CNC(=O)c1c(-c2ccc(F)cc2)oc2cc(N(CCCCCCOc3ccc(C(=O)O)cc3)S(C)(=O)=O)c(C3CC3)cc12", "note": "[Compound 15-8, 4-(6-{[5-Cyclopropyl-2-(4-fluoro-phenyl)-3-methylcarbamoyl-benzofuran-6-yl]-methanesulfonyl-amino}-hexyloxy)-benzoic Acid]", "IC50": "100 to 1000"}]}]}
